Data: article PMC3700413 (Journal of medicinal chemistry, 2008)
Entries after “also recorded” stand apart in the source; their conditions may differ. Where two headings read alike, the source gives them in different places.

How the values were obtained:
[1] = molecular target: T1, CB2 cannabinoid receptor (Mus musculus, UniProt P47936); assay: Competitive [3H]CP55,940 binding assay, mouse spleen membranes; details: rCB1 versus mCB2 Ki values
[2] = molecular target: T1, CB2 cannabinoid receptor; details: earlier work on adamantyl substituents at C3 of Δ8-THC; cited from earlier work

T1 sequence (P47936 whole entry): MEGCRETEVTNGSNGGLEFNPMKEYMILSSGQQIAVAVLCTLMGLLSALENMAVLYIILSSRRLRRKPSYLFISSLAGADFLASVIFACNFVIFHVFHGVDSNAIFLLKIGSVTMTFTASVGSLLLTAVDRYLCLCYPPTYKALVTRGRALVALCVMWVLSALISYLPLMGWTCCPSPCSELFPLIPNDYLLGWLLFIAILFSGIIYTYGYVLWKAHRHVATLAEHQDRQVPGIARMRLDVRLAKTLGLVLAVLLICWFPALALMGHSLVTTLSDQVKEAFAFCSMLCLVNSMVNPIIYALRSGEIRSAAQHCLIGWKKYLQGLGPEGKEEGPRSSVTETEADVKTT

Row | SMILES | CB1/CB2 receptor subtype selectivity (in words) [1] | CB1/CB2 receptor subtype selectivity (in words) [2]
1 | CC1=CC[C@@H]2[C@@H](C1)c1c(ccc(C[C@@H]3C[C@@H]4CC[C@]3(C)C4(C)C)c1O)OC2(C)C [Compound 8d, (6aR-trans)-3-(exo-1′,7′,7′-Trimethylbicyclo[2.2.1]hept-2′-ylmethyl)-6a,7,10,10a-tetrahydro-6,6,9-trimethyl-6H-dibenzo[b,d]pyran-1-ol] | nonselective; also recorded: complete loss of subtype selectivities | –
2 | CC1=CCC2C(C1)c1c(O)cc(C3C4CC5CC(C4)CC3C5)cc1OC2(C)C (centres unmarked) [adamant-2′-yl analog] | – | CB2 selective
3 | CC1=CC[C@@H]2[C@@H](C1)c1c(O)cc(C34CC5CC(CC(C5)C3)C4)cc1OC2(C)C [Compound 11, 3-(adamant-1′-yl)-Δ^8-THC] | – | substantial CB1 selectivity
4 | CC1=CC[C@@H]2[C@@H](C1)c1c(O)cc([C@H]3C[C@@H]4CC[C@]3(C)C4(C)C)cc1OC2(C)C [Compound 8a, (6aR-trans)-3-(endo-1′,7′,7′-Trimethylbicyclo[2.2.1]hept-2′-yl)-6a,7,10,10atetrahydro-6,6,9-trimethyl-6H-dibenzo[b,d]pyran-1-ol] | no subtype selectivity | –
5 | CC1=CC[C@@H]2[C@@H](C1)c1c(ccc(C[C@H]3C[C@@H]4CC[C@]3(C)C4(C)C)c1O)OC2(C)C [Compound 8c, (6aR-trans)-3-(endo-1′,7′,7′-Trimethylbicyclo[2.2.1]hept-2′-ylmethyl)-6a,7,10,10a-tetrahydro-6,6,9-trimethyl-6H-dibenzo[b,d]pyran-1-ol] | nonselective; also recorded: complete loss of subtype selectivities | –
